{
  "source": "patent US20260250318A1",
  "about": "“COMPOSITIONS AND METHODS FOR CROSSING THE BLOOD BRAIN BARRIER” (VOYAGER THERAPEUTICS, INC., priority 2022, published 2026)",
  "key": {"[1]": {"tested_on": "brains, heart, liver, muscle, and DRG of the NHPs", "assay": "Maturation of TTM-001 and TTM-002 capsids, NGS enrichment in NHP tissues", "assay_type": "in vivo", "conditions": "relative to AAV9 control", "how_it_was_run": "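Variants carry mutations within and flanking the loop IV peptide insert: positions 450–466 were triplet-randomized, while positions 449–466 received low-frequency point mutations. The combined pool went into two NHPs, and each peptide was scored by NGS enrichment ratio against AAV9.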"}, "[2]": {"tested_on": "brain", "assay": "Matured TTM-001 and TTM-002 variants, NGS enrichment in mouse brain", "assay_type": "in vivo, mice", "conditions": "relative to AAV9 control"}, "[3]": {"conditions": "NGS fold-enrichment, DRG of NHPs"}, "[4]": {"conditions": "NGS fold-enrichment, RNA, brain of NHPs"}, "[5]": {"conditions": "NGS fold-enrichment, heart of NHPs"}, "[6]": {"conditions": "NGS fold-enrichment, liver DNA of NHPs"}, "[7]": {"conditions": "NGS fold-enrichment, liver RNA of NHPs"}, "[8]": {"conditions": "NGS fold-enrichment, muscle of NHPs"}, "[9]": {"conditions": "NGS fold-enrichment, brain of mice"}, "[10]": {"conditions": "NGS fold-enrichment of matured AAV capsid variants, NHP brain, RNA"}},
  "data": [
    {"sequence": "KTINGSGSPHSKAQRTMT", "values": [
      {"measurement": "Fold Enrichment relative to AAV9, Brain (NHP)", "setting": "[1]; NGS fold-enrichment of RNA, NHP brain", "value": 80.388, "unit": "fold"},
      {"measurement": "Fold Enrichment relative to AAV9, DRG (NHP)", "setting": "[1]; [3]", "value": 0.000, "unit": "fold"},
      {"measurement": "Fold Enrichment relative to AAV9, DRG (NHP)", "setting": "[1]; NGS fold-enrichment, NHP DRG", "value": 0.000, "unit": "fold"},
      {"measurement": "Fold Enrichment relative to AAV9, Heart (NHP)", "setting": "[1]; NGS fold-enrichment, NHP heart", "value": 0.022, "unit": "fold"},
      {"measurement": "Fold Enrichment relative to AAV9, Liver DNA (NHP)", "setting": "[1]; NGS fold-enrichment, NHP liver DNA", "value": 1.025, "unit": "fold"},
      {"measurement": "Fold Enrichment relative to AAV9, Liver RNA (NHP)", "setting": "[1]; NGS fold-enrichment, NHP liver RNA", "value": 1.812, "unit": "fold"},
      {"measurement": "Fold Enrichment relative to AAV9, Muscle (NHP)", "setting": "[1]; NGS fold-enrichment, NHP muscle", "value": 0.170, "unit": "fold"},
      {"measurement": "Fold Enrichment relative to AAV9, Brain (NHP)", "setting": "[1]; [4]", "value": 80.388, "unit": "fold"},
      {"measurement": "Fold Enrichment relative to AAV9, Heart (NHP)", "setting": "[1]; [5]", "value": 0.022, "unit": "fold"},
      {"measurement": "Fold Enrichment relative to AAV9, Liver DNA (NHP)", "setting": "[1]; [6]", "value": 1.025, "unit": "fold"},
      {"measurement": "Fold Enrichment relative to AAV9, Liver RNA (NHP)", "setting": "[1]; [7]", "value": 1.812, "unit": "fold"},
      {"measurement": "Fold Enrichment relative to AAV9, Muscle (NHP)", "setting": "[1]; [8]", "value": 0.170, "unit": "fold"},
      {"measurement": "Fold Enrichment relative to AAV9, Brain (Mouse)", "setting": "[2]; [9]", "value": 100.248, "unit": "fold"},
      {"measurement": "Fold Enrichment relative to AAV9, Brain (Mouse)", "setting": "[2]; NGS fold-enrichment, mouse brain", "value": 100.248, "unit": "fold"}
    ]},
    {"sequence": "KTINGSGSPHSKAQSAHT", "values": [
      {"measurement": "Fold Enrichment relative to AAV9, Brain (NHP)", "setting": "[1]; [10]", "value": 51.569, "unit": "fold"},
      {"measurement": "Fold Enrichment relative to AAV9, DRG (NHP)", "setting": "[1]; NHP DRG", "value": 0.068, "unit": "fold"},
      {"measurement": "Fold Enrichment relative to AAV9, Heart (NHP)", "setting": "[1]; NHP heart", "value": 0.070, "unit": "fold"},
      {"measurement": "Fold Enrichment relative to AAV9, Liver DNA (NHP)", "setting": "[1]; NHP liver, DNA", "value": 0.249, "unit": "fold"},
      {"measurement": "Fold Enrichment relative to AAV9, Liver RNA (NHP)", "setting": "[1]; NHP liver, RNA", "value": 0.589, "unit": "fold"},
      {"measurement": "Fold Enrichment relative to AAV9, Muscle (NHP)", "setting": "[1]; NHP muscle", "value": 0.000, "unit": "fold"},
      {"measurement": "Fold Enrichment relative to AAV9, Brain (Mouse)", "setting": "[2]; mouse brain", "value": 79.498, "unit": "fold"}
    ]},
    {"sequence": "KTINGSGSPHSKAQSKVT", "values": [
      {"measurement": "Fold Enrichment relative to AAV9, Brain (NHP)", "setting": "[1]; [10]", "value": 56.373, "unit": "fold"},
      {"measurement": "Fold Enrichment relative to AAV9, DRG (NHP)", "setting": "[1]; NHP DRG", "value": 0.000, "unit": "fold"},
      {"measurement": "Fold Enrichment relative to AAV9, Heart (NHP)", "setting": "[1]; NHP heart", "value": 0.050, "unit": "fold"},
      {"measurement": "Fold Enrichment relative to AAV9, Liver DNA (NHP)", "setting": "[1]; NHP liver, DNA", "value": 0.390, "unit": "fold"},
      {"measurement": "Fold Enrichment relative to AAV9, Liver RNA (NHP)", "setting": "[1]; NHP liver, RNA", "value": 1.021, "unit": "fold"},
      {"measurement": "Fold Enrichment relative to AAV9, Muscle (NHP)", "setting": "[1]; NHP muscle", "value": 0.014, "unit": "fold"},
      {"measurement": "Fold Enrichment relative to AAV9, Brain (Mouse)", "setting": "[2]; mouse brain", "value": 76.115, "unit": "fold"}
    ]},
    {"sequence": "KTINGSGSPHSKAQSLQI", "values": [
      {"measurement": "Fold Enrichment relative to AAV9, Brain (NHP)", "setting": "[1]; [10]", "value": 53.778, "unit": "fold"},
      {"measurement": "Fold Enrichment relative to AAV9, DRG (NHP)", "setting": "[1]; NHP DRG", "value": 0.000, "unit": "fold"},
      {"measurement": "Fold Enrichment relative to AAV9, Heart (NHP)", "setting": "[1]; NHP heart", "value": 0.186, "unit": "fold"},
      {"measurement": "Fold Enrichment relative to AAV9, Liver DNA (NHP)", "setting": "[1]; NHP liver, DNA", "value": 0.047, "unit": "fold"},
      {"measurement": "Fold Enrichment relative to AAV9, Liver RNA (NHP)", "setting": "[1]; NHP liver, RNA", "value": 0.022, "unit": "fold"},
      {"measurement": "Fold Enrichment relative to AAV9, Muscle (NHP)", "setting": "[1]; NHP muscle", "value": 0.000, "unit": "fold"},
      {"measurement": "Fold Enrichment relative to AAV9, Brain (Mouse)", "setting": "[2]; mouse brain", "value": 51.543, "unit": "fold"}
    ]},
    {"sequence": "KTINGSGSPHSKAQSPPT", "values": [
      {"measurement": "Fold Enrichment relative to AAV9, DRG (NHP)", "setting": "[1]; [3]", "value": 0.069, "unit": "fold"},
      {"measurement": "Fold Enrichment relative to AAV9, Brain (NHP)", "setting": "[1]; [4]", "value": 71.632, "unit": "fold"},
      {"measurement": "Fold Enrichment relative to AAV9, Heart (NHP)", "setting": "[1]; [5]", "value": 0.047, "unit": "fold"},
      {"measurement": "Fold Enrichment relative to AAV9, Liver DNA (NHP)", "setting": "[1]; [6]", "value": 0.425, "unit": "fold"},
      {"measurement": "Fold Enrichment relative to AAV9, Liver RNA (NHP)", "setting": "[1]; [7]", "value": 0.179, "unit": "fold"},
      {"measurement": "Fold Enrichment relative to AAV9, Muscle (NHP)", "setting": "[1]; [8]", "value": 0.274, "unit": "fold"},
      {"measurement": "Fold Enrichment relative to AAV9, Brain (Mouse)", "setting": "[2]; [9]", "value": 97.111, "unit": "fold"}
    ]},
    {"sequence": "KTINGSGSPHSKAQSQQL", "values": [
      {"measurement": "Fold Enrichment relative to AAV9, DRG (NHP)", "setting": "[1]; [3]", "value": 0.000, "unit": "fold"},
      {"measurement": "Fold Enrichment relative to AAV9, Brain (NHP)", "setting": "[1]; [4]", "value": 70.539, "unit": "fold"},
      {"measurement": "Fold Enrichment relative to AAV9, Heart (NHP)", "setting": "[1]; [5]", "value": 0.000, "unit": "fold"},
      {"measurement": "Fold Enrichment relative to AAV9, Liver DNA (NHP)", "setting": "[1]; [6]", "value": 0.041, "unit": "fold"},
      {"measurement": "Fold Enrichment relative to AAV9, Liver RNA (NHP)", "setting": "[1]; [7]", "value": 0.000, "unit": "fold"},
      {"measurement": "Fold Enrichment relative to AAV9, Muscle (NHP)", "setting": "[1]; [8]", "value": 0.000, "unit": "fold"},
      {"measurement": "Fold Enrichment relative to AAV9, Brain (Mouse)", "setting": "[2]; [9]", "value": 51.126, "unit": "fold"}
    ]},
    {"sequence": "KTINGSGSPHSKAQSTMT", "values": [
      {"measurement": "Fold Enrichment relative to AAV9, Brain (NHP)", "setting": "[1]; [10]", "value": 51.249, "unit": "fold"},
      {"measurement": "Fold Enrichment relative to AAV9, DRG (NHP)", "setting": "[1]; NHP DRG", "value": 0.018, "unit": "fold"},
      {"measurement": "Fold Enrichment relative to AAV9, Heart (NHP)", "setting": "[1]; NHP heart", "value": 0.002, "unit": "fold"},
      {"measurement": "Fold Enrichment relative to AAV9, Liver DNA (NHP)", "setting": "[1]; NHP liver, DNA", "value": 0.341, "unit": "fold"},
      {"measurement": "Fold Enrichment relative to AAV9, Liver RNA (NHP)", "setting": "[1]; NHP liver, RNA", "value": 0.321, "unit": "fold"},
      {"measurement": "Fold Enrichment relative to AAV9, Muscle (NHP)", "setting": "[1]; NHP muscle", "value": 0.002, "unit": "fold"},
      {"measurement": "Fold Enrichment relative to AAV9, Brain (Mouse)", "setting": "[2]; mouse brain", "value": 73.213, "unit": "fold"}
    ]},
    {"sequence": "KTINGSGSPHSKAQSVHT", "values": [
      {"measurement": "Fold Enrichment relative to AAV9, Brain (NHP)", "setting": "[1]; [10]", "value": 53.226, "unit": "fold"},
      {"measurement": "Fold Enrichment relative to AAV9, DRG (NHP)", "setting": "[1]; NHP DRG", "value": 0.000, "unit": "fold"},
      {"measurement": "Fold Enrichment relative to AAV9, Heart (NHP)", "setting": "[1]; NHP heart", "value": 0.004, "unit": "fold"},
      {"measurement": "Fold Enrichment relative to AAV9, Liver DNA (NHP)", "setting": "[1]; NHP liver, DNA", "value": 0.217, "unit": "fold"},
      {"measurement": "Fold Enrichment relative to AAV9, Liver RNA (NHP)", "setting": "[1]; NHP liver, RNA", "value": 0.446, "unit": "fold"},
      {"measurement": "Fold Enrichment relative to AAV9, Muscle (NHP)", "setting": "[1]; NHP muscle", "value": 0.000, "unit": "fold"},
      {"measurement": "Fold Enrichment relative to AAV9, Brain (Mouse)", "setting": "[2]; mouse brain", "value": 76.110, "unit": "fold"}
    ]}
  ]
}
